# From ChEMBL document CHEMBL1201862, “PubChem BioAssay data set” (2004)
#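 In this assay, cells in 96-well plates receive the compound at five concentrations for 48 hours. Endpoints are linearly interpolated between the surrounding concentrations. The concentration for 50% growth inhibition is given as GI50.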 Calls of active or inactive are those of the source. Cut-off read from the data, not from the text of the source: active = GI50 up to about 1.1 µM and inactive = higher.
# How the values were obtained:
# Assay in all cases: inhibition of tumour cell growth, NCI panel, 48 h
# [1] = test system: CAKI-1
# [2] = test system: DU-145
# [3] = test system: HCC 2998
# [4] = test system: HOP-62
# [5] = test system: HOP-92
# [6] = test system: HT-29
# [7] = test system: Hs-578T
# [8] = test system: KM12
# [9] = test system: M14
# [10] = test system: NCI-H226
# [11] = test system: NCI-H23
# [12] = test system: OVCAR-5
# [13] = test system: PC-3
# [14] = test system: RXF 393
# [15] = test system: SF-268
# [16] = test system: SW-620
# [17] = test system: U-251
# [18] = test system: UACC-62
# [19] = test system: NCI-H522
Compound,GI50 [1],GI50 [2],GI50 [3],GI50 [4],GI50 [5],GI50 [6],GI50 [7],GI50 [8],GI50 [9],GI50 [10],GI50 [11],GI50 [12],GI50 [13],GI50 [14],GI50 [15],GI50 [16],GI50 [17],GI50 [18],GI50 [19]
[N-]=[N+]=CC(=O)C1CCCN1C(=O)c1ccccc1 (stereo unspecified),> 10 µM (inactive),> 10 µM (inactive),> 10 µM (inactive),> 10 µM (inactive),> 10 µM (inactive),> 10 µM (inactive),> 10 µM (inactive),> 10 µM (inactive),> 10 µM (inactive),> 10 µM (inactive),> 10 µM (inactive),> 10 µM (inactive),> 10 µM (inactive),> 10 µM (inactive),> 10 µM (inactive),> 10 µM (inactive),> 10 µM (inactive),> 10 µM (inactive),–
O=c1cc(/N=N/c2ccc(O)cc2)[nH]c(=O)[nH]1,> 100 µM (inactive),> 100 µM (inactive),29.7 µM (inactive),62.8 µM (inactive),96.6 µM (inactive),67.8 µM (inactive),–,16.9 µM (inactive),> 100 µM (inactive),> 100 µM (inactive),> 100 µM (inactive),> 100 µM (inactive),> 100 µM (inactive),42.1 µM (inactive),40.5 µM (inactive),> 100 µM (inactive),60.8 µM (inactive),60.7 µM (inactive),31.7 µM (inactive)
C[C@H](CCC(=O)O)[C@H]1CC[C@H]2[C@@H]3[C@@H](O)C[C@@H]4C[C@H](O)CC[C@]4(C)[C@H]3CC[C@]12C [URSODIOL],> 100 µM (inactive),> 100 µM (inactive),> 100 µM (inactive),> 100 µM (inactive),> 100 µM (inactive),> 100 µM (inactive),–,> 100 µM (inactive),> 100 µM (inactive),> 100 µM (inactive),> 100 µM (inactive),> 100 µM (inactive),> 100 µM (inactive),> 100 µM (inactive),> 100 µM (inactive),> 100 µM (inactive),> 100 µM (inactive),> 100 µM (inactive),> 100 µM (inactive)
CCOC(=O)N1c2c(c3ccccc3n2C(=O)OCC)C(=O)C(OC)N1C(=O)OCC (stereo unspecified),28.8 µM (inactive),61.9 µM (inactive),33.3 µM (inactive),22 µM (inactive),31.3 µM (inactive),30.5 µM (inactive),22.5 µM (inactive),17.9 µM (inactive),38.4 µM (inactive),36.1 µM (inactive),44.3 µM (inactive),42 µM (inactive),21.6 µM (inactive),–,–,31.7 µM (inactive),27.1 µM (inactive),40.1 µM (inactive),13.3 µM (inactive)
CCOC(=O)c1cnc2oc3ccc(O)cc3c2c1C,67 µM (inactive),> 100 µM (inactive),> 100 µM (inactive),–,> 100 µM (inactive),> 100 µM (inactive),35.2 µM (inactive),–,> 100 µM (inactive),> 100 µM (inactive),> 100 µM (inactive),> 100 µM (inactive),> 100 µM (inactive),> 100 µM (inactive),–,> 100 µM (inactive),> 100 µM (inactive),> 100 µM (inactive),–
COc1ccc(CC2C3=C(CCCC3)CCN2C)cc1 (stereo unspecified),> 100 µM (inactive),> 100 µM (inactive),45.4 µM (inactive),> 100 µM (inactive),–,65.8 µM (inactive),77.6 µM (inactive),> 100 µM (inactive),44.4 µM (inactive),> 100 µM (inactive),> 100 µM (inactive),> 100 µM (inactive),> 100 µM (inactive),> 100 µM (inactive),43.1 µM (inactive),> 100 µM (inactive),> 100 µM (inactive),65.6 µM (inactive),–
CCCCS(=O)(=O)CCC(N)P(=O)(O)O (stereo unspecified),> 100 µM (inactive),> 100 µM (inactive),–,> 100 µM (inactive),> 100 µM (inactive),> 100 µM (inactive),> 100 µM (inactive),> 100 µM (inactive),> 100 µM (inactive),> 100 µM (inactive),> 100 µM (inactive),> 100 µM (inactive),> 100 µM (inactive),–,> 100 µM (inactive),> 100 µM (inactive),> 100 µM (inactive),> 100 µM (inactive),> 100 µM (inactive)
O=C1NN(Cc2ccccc2)C(=O)N2CCC[C@@H]12,> 100 µM (inactive),> 100 µM (inactive),> 100 µM (inactive),> 100 µM (inactive),> 100 µM (inactive),> 100 µM (inactive),> 100 µM (inactive),> 100 µM (inactive),> 100 µM (inactive),0.0505 µM (active),> 100 µM (inactive),> 100 µM (inactive),> 100 µM (inactive),> 100 µM (inactive),> 100 µM (inactive),> 100 µM (inactive),–,> 100 µM (inactive),–
CC(=O)Oc1cc(OC(C)=O)c2cc3c(cc2c1OC(C)=O)C(=O)C1(CCCC1)C3=O,11.4 µM (inactive),–,21.7 µM (inactive),21.4 µM (inactive),15.1 µM (inactive),12.2 µM (inactive),–,–,17.7 µM (inactive),–,17.7 µM (inactive),–,–,17.2 µM (inactive),22.5 µM (inactive),16.3 µM (inactive),18.1 µM (inactive),15.8 µM (inactive),–
CCc1n[nH]c(=O)n1/N=C(\C)c1ccc([N+](=O)[O-])cc1,> 100 µM (inactive),27.5 µM (inactive),–,> 100 µM (inactive),> 100 µM (inactive),36.6 µM (inactive),92.3 µM (inactive),> 100 µM (inactive),> 100 µM (inactive),> 100 µM (inactive),66.8 µM (inactive),> 100 µM (inactive),> 100 µM (inactive),78.5 µM (inactive),26.3 µM (inactive),94.2 µM (inactive),> 100 µM (inactive),> 100 µM (inactive),–
Cc1nc(N)c(N2CCN(S(=O)(=O)N(Cc3ccccc3)Cc3ccccc3)CC2)c(O)n1,–,20.7 µM (inactive),87.3 µM (inactive),31.6 µM (inactive),–,26.8 µM (inactive),33.3 µM (inactive),56.9 µM (inactive),28.5 µM (inactive),30.1 µM (inactive),21.9 µM (inactive),28 µM (inactive),20.4 µM (inactive),–,28.6 µM (inactive),69.7 µM (inactive),16.9 µM (inactive),–,> 10 µM (inactive)
Cc1cc(C2CC(O)C(CO)O2)c(F)cc1F (stereo unspecified),> 100 µM (inactive),> 100 µM (inactive),> 100 µM (inactive),> 100 µM (inactive),> 100 µM (inactive),> 100 µM (inactive),–,> 100 µM (inactive),> 100 µM (inactive),> 100 µM (inactive),> 100 µM (inactive),> 100 µM (inactive),> 100 µM (inactive),> 100 µM (inactive),> 100 µM (inactive),> 100 µM (inactive),> 100 µM (inactive),> 100 µM (inactive),> 100 µM (inactive)
Sc1nnc(Cc2ccc(Cl)cc2)[nH]1,56.2 µM (inactive),67 µM (inactive),> 100 µM (inactive),93.1 µM (inactive),16.2 µM (inactive),> 100 µM (inactive),16.4 µM (inactive),43.2 µM (inactive),> 100 µM (inactive),65.5 µM (inactive),26.6 µM (inactive),> 100 µM (inactive),49.1 µM (inactive),–,–,85.5 µM (inactive),58.1 µM (inactive),66.7 µM (inactive),–
CCn1c2ccccc2n2c(=O)c3c(c(C#N)c12)CCCC3,> 100 µM (inactive),> 100 µM (inactive),> 100 µM (inactive),–,> 100 µM (inactive),> 100 µM (inactive),> 100 µM (inactive),> 100 µM (inactive),> 100 µM (inactive),> 100 µM (inactive),> 100 µM (inactive),> 100 µM (inactive),> 100 µM (inactive),–,> 100 µM (inactive),> 100 µM (inactive),> 100 µM (inactive),> 100 µM (inactive),> 100 µM (inactive)
CNC1C(O)C(OC2C(N)CC(N)C(OC3OC(C(C)O)C(O)C(O)C3N)C2O)OCC1(C)O (stereo unspecified),> 100 µM (inactive),> 100 µM (inactive),> 100 µM (inactive),> 100 µM (inactive),–,> 100 µM (inactive),> 100 µM (inactive),> 100 µM (inactive),> 100 µM (inactive),> 100 µM (inactive),> 100 µM (inactive),> 100 µM (inactive),> 100 µM (inactive),–,> 100 µM (inactive),> 100 µM (inactive),> 100 µM (inactive),> 100 µM (inactive),> 100 µM (inactive)
CCOC(=O)/C=C/[C@@H](CC)O[Si](C(C)C)(C(C)C)C(C)C,> 100 µM (inactive),> 100 µM (inactive),> 100 µM (inactive),67.6 µM (inactive),> 100 µM (inactive),> 100 µM (inactive),> 100 µM (inactive),> 100 µM (inactive),–,> 100 µM (inactive),> 100 µM (inactive),> 100 µM (inactive),61.7 µM (inactive),–,> 100 µM (inactive),> 100 µM (inactive),> 100 µM (inactive),> 100 µM (inactive),> 100 µM (inactive)
